Experimental data reported in article PMC3125149, “SCYX-7158, an Orally-Active Benzoxaborole for the Treatment of Stage 2 Human African Trypanosomiasis” (PLoS Neglected Tropical Diseases, 2011).
Like-named read-outs stand apart in the source and are kept apart here.

How the values were obtained:
[1] = test system: T. b. brucei EATRO 110 strain; assay: Efficacy in the mouse model for acute HAT; format: in vivo
Procedure: For efficacy studies against acute infections, groups of 3–5 female Swiss Webster mice (Ace Animals, Boyertown, PA) were injected intraperitoneally (i.p.) with freshly drawn infected rat blood containing 2.5×10^5 trypanosomes (T. b. brucei EATRO 110 strain). The infection was allowed to progress for 24 h before treatment. Test compound was then given daily by bolus i.p. injection or oral gavage. Oxaborole compounds were formulated in 2% ethanol/5% dextrose and were given at a dose volume of 200 µL (containing 1.25 to 50 mg/kg) for a 25 g animal. Animals were monitored daily for signs of compound toxicity and clinical signs of trypanosomiasis for a period of 30 days. Mice were checked for parasitemia once per week by microscopic examination of smears prepared from the tail vein blood of animals. Animals remaining parasite free for more than 30 days beyond the end of the treatment period were considered cured. Control untreated animals typically succumbed to the infection within 4–5 days following i.p. inoculation with parasites.

T. b. brucei TREU 667 = assay: Efficacy in mouse model for chronic (CNS, stage 2) HAT; format: in vivo
Procedure: For evaluation against late-stage CNS infections, a chronic disease inducing strain (TREU 667) of T. b. brucei was used.[19] Mice were divided into groups of ten and each animal was infected i.p. with 1×10^4 parasites (200 μL). […] Louis, MO) administered by i.p. injection on day 4 after infection. […] Animals were checked for parasitemia once per week and were immediately removed from the cages and euthanized upon recrudescence. Animals were considered to be cured of a CNS infection if they were […] for at least 180 days after the end of the treatment period.

[2] = Plasma protein binding by rapid equilibrium dialysis; format: in vitro ADME; settings: for fraction unbound at 4 h: read-out: unbound fraction (fu)
Procedure: Binding to human or mouse plasma proteins or mouse brain homogenate was determined by rapid equilibrium dialysis (RED) (Pierce, Rockford, IL) using a 48-well plate-based format according to the manufacturer's instructions. Briefly, test compound at the required concentrations was added to fresh human or mouse plasma (Bioreclamation, Liverpool, NY) or freshly prepared mouse brain homogenate. Duplicate aliquots of each sample were transferred into the sample chambers of the RED devices, and dialysis buffer (BupH PBS) was added to the buffer chambers. The plates were sealed and incubated at 37°C for 4 h. After dialysis, samples collected from the buffer and tissue chambers were treated with ice-cold methanol (3 volumes for plasma, 4 volumes for brain) to precipitate proteins. The treated samples were centrifuged for 10 min at 3×10^3 g at 15°C. The supernatants were assayed for test compound by LC-MS/MS. Calibration standards and quality control samples were prepared in matched matrix and assayed with samples. Values for unbound and bound fractions and mass balance were calculated. Concordance of binding for each batch of plasma was confirmed by assay of warfarin, imipramine and carbamezapine. Acceptance criterion for mass balance was 70–120%.

[3] = In vivo pharmacokinetic characterization (abstract summary); set-up: species or system rodents
Procedure: The blood distribution, CNS disposition and pharmacokinetics of SCYX-7158 were evaluated in infected or non-infected rodents following intravenous or oral administration of compounds. Pharmacokinetics and bioavailability of SCYX-7158 were also evaluated in non-infected beagle dogs and cynomolgus monkeys. In-life phases of non-infected rodent studies were performed at Vivisource (Waltham, MA); studies in non-naïve cynomolgus monkeys were performed by SNBL USA (Everett, WA).
Male CD-1 mice (∼25 g), male Sprague-Dawley rats (∼225 g), or male cynomolgus monkeys (∼3–5 kg) were administered test article by either bolus intravenous injection (IV) or oral gavage. Animals in the IV groups received a single 2 mg/kg IV dose. Animals received oral doses of test articles as either single or twice daily doses ranging from 8 mg/kg to 50 mg/kg. All doses were administered as clear colorless solutions in either 50% (v/v) PEG 400: 20% (v/v) ethanol: 30% (v/v) carboxymethylcellulose (0.5% w/v in sterile water for injection) or 2% (v/v) ethanol: 5% (w/v) dextrose in sterile water for injection. Doses were administered in a volume of 4 mL/kg, 2 mL/kg or 1 mL/kg for mice, rats and cynomolgus monkeys, respectively. For pharmacokinetic analysis, blood samples were collected from mice via cardiac puncture under terminal anaesthesia. Serial blood samples were collected from rats via a vascular access port located in the lateral saphenous vein. Mice and rats were euthanized in a CO2 chamber before collection of terminal blood samples or brain tissue. Blood samples were collected into polypropylene tubes containing K2EDTA anticoagulant and stored on ice until centrifuged for the preparation of plasma. Plasma was stored at −70°C. Whole brains were collected following decapitation, blotted dry, placed into polypropylene containers and then immediately frozen at approximately −70°C. CSF was collected from rats via cisterna magna puncture, placed in sterile polypropylene tubes, and stored at approximately −70°C.

[4] = Pharmacokinetics in uninfected mice; format: in vivo, mouse

SMILES: CC1(C)OB(O)c2cc(NC(=O)c3ccc(F)cc3C(F)(F)F)ccc21 [SCYX-7158]
- % Cured ([1]; 1.25 mg/kg BID, 4 days, PO): 0%
- Avg. Days Parasite-Free ([1]; 1.25 mg/kg BID, 4 days, PO): 8 days
- Cured/Total ([1]; 1.25 mg/kg BID, 4 days, PO): 0/5
- % Cured ([1]; 1.25 mg/kg QD, 4 days, PO): 0%
- Avg. Days Parasite-Free ([1]; 1.25 mg/kg QD, 4 days, PO): 4.4 days
- Cured/Total ([1]; 1.25 mg/kg QD, 4 days, PO): 0/5
- % Cured ([1]; 2.5 mg/kg BID, 4 days, PO): 100%
- Avg. Days Parasite-Free ([1]; 2.5 mg/kg BID, 4 days, PO): >30 days
- Cured/Total ([1]; 2.5 mg/kg BID, 4 days, PO): 5/5
- % Cured ([1]; 2.5 mg/kg QD, 4 days, PO): 0%
- Avg. Days Parasite-Free ([1]; 2.5 mg/kg QD, 4 days, PO): 8.4 days
- Cured/Total ([1]; 2.5 mg/kg QD, 4 days, PO): 0/5
- % Cured ([1]; 5 mg/kg BID, 4 days, PO): 100%
- Avg. Days Parasite-Free ([1]; 5 mg/kg BID, 4 days, PO): >30 days
- Cured/Total ([1]; 5 mg/kg BID, 4 days, PO): 5/5
- % Cured ([1]; 5 mg/kg QD, 1 day, IP): 0%
- Avg. Days Parasite-Free ([1]; 5 mg/kg QD, 1 day, IP): 6 days
- Cured/Total ([1]; 5 mg/kg QD, 1 day, IP): 0/3
- % Cured ([1]; 5 mg/kg QD, 4 days, PO): 100%
- Avg. Days Parasite-Free ([1]; 5 mg/kg QD, 4 days, PO): >30 days
- Cured/Total ([1]; 5 mg/kg QD, 4 days, PO): 5/5
- % Cured ([1]; 10 mg/kg BID, 4 days, PO): 100%
- Avg. Days Parasite-Free ([1]; 10 mg/kg BID, 4 days, PO): >30 days
- Cured/Total ([1]; 10 mg/kg BID, 4 days, PO): 5/5
- % Cured ([1]; 10 mg/kg QD, 1 day, IP): 0%
- Avg. Days Parasite-Free ([1]; 10 mg/kg QD, 1 day, IP): 9.3 days
- Cured/Total ([1]; 10 mg/kg QD, 1 day, IP): 0/3
- % Cured ([1]; 10 mg/kg QD, 4 days, PO): 100%
- Avg. Days Parasite-Free ([1]; 10 mg/kg QD, 4 days, PO): >30 days
- Cured/Total ([1]; 10 mg/kg QD, 4 days, PO): 5/5
- % Cured ([1]; 25 mg/kg QD, 1 day, IP): 100%
- Avg. Days Parasite-Free ([1]; 25 mg/kg QD, 1 day, IP): >30 days
- Cured/Total ([1]; 25 mg/kg QD, 1 day, IP): 3/3
- % Cured ([1]; 25 mg/kg QD, 1 day, PO): 33%
- Avg. Days Parasite-Free ([1]; 25 mg/kg QD, 1 day, PO): 8.3 days
- Cured/Total ([1]; 25 mg/kg QD, 1 day, PO): 1/3
- cure rate (T. b. brucei TREU 667; 12.5 mg/kg once daily oral over 7 days starting day 21 after infection): 80%
- cure rate (T. b. brucei TREU 667; 25 mg/kg once daily oral, 7 doses, starting day 21 after infection): 100%
- lowest effective oral dose in murine stage 2 study (T. b. brucei TREU 667; QD×7 days, oral): 12.5 mg/kg
- fraction unbound at 4 h, 1 µg/mL ([2]; human plasma): 0.013
- fraction unbound at 4 h, 50 µg/mL ([2]; human plasma): 0.055
- fraction unbound at 4 h ([2]; mouse, mouse plasma at the MIC (∼0.6 µg/mL)): 0.003
- fraction unbound at 4 h ([2]; mouse, mouse plasma at ∼15 µg/mL (Cmax at steady-state)): 0.032
- fraction unbound at 4 h, 1 µg/mL ([2]; mouse, mouse plasma): 0.0032
- fraction unbound at 4 h, 50 µg/mL ([2]; mouse, mouse plasma): 0.0463
- half-life ([3]; male, rodents and non-human primates, plasma, read-out: elimination half-life (converted)): 24 h
- brain AUC0–24 hr ([3]; rodents, 25 mg/kg oral dose): > 100000 ng·h/mL
- brain Cmax ([3]; rodents, 25 mg/kg oral dose): > 10000 ng/mL
- brain AUC0–24 h ([4]; 4.3 mg/kg intravenous, brain): 5570 ng·h/mL
- clearance ([4]; male, CD-1, mouse, plasma, 4.3 mg/kg intravenous, read-out: systemic clearance (CL) (converted)): 1.48 mL/min/kg
- Vd ([4]; male, CD-1, mouse, plasma, 4.3 mg/kg intravenous, read-out: volume of distribution (Vdss)): 1.69 L/kg
- Cmax ([4]; male, CD-1, mouse, oral dose of 56 mg/kg SCYX-7158, plasma): 18000 ng/mL
